Reference: patent US20210309631A1, “SALT OF CYCLOHEXANE DERIVATIVE” (priority 2018, published 2021)
Read-outs that look alike come from different tables or passages of the source.

What was measured:
solubility in water = format: physicochemical; conditions: listed as crystal Form A of the free base
[1] = Hygroscopicity (DVS) experiment, 25° C./80% relative humidity; format: physicochemical; conditions: DVS, 25° C./80% relative humidity; listed as Example 1 free base
Protocol: Dynamic vapor sorption curves were collected on a DVS Intrinsic by SMS (Surface Measurement Systems).
20 mg sample of the crystal forms of the Examples and Comparative Examples are placed in the environment of 25° C./80% relative humidity for a dynamic vapor sorption (DVS) test, and the test results […] are shown in Table 5.

[2] = Plasma pharmacokinetics in SD rats after single intragastric administration (Example 7); format: in vivo; conditions: intragastric 1 mg/kg, Mean ± SD, non-compartmental model, listed as free base
Protocol: The in vivo absorption process and characteristics of the free base and four salts thereof (sulfate, hydrochloride salt, phosphate, maleate) of compound (I) in rats were studied. The pharmacokinetics of a single intragastric administration of 1 mg/kg of a compound of Formula I and four salts thereof (calculated by free base concentration in salt form) were studied in SD rats.
SD rats were given a single intragastric administration of 1 mg/kg free base of Example 1 and four salts thereof (including hydrochloride salt from Example 2, sulfate from Example 3, phosphate from Example 4 and maleate from Example 5). There were 4 male rats in each group. The concentration of the compound of Formula I in plasma was determined, and the pharmacokinetic parameters were calculated according to the concentration-time curve.

[3] = In vivo individual difference analysis: individual plasma concentration versus time in rats (Example 8); parameters: species or system SD rats; conditions: intragastric 1 mg/kg; for Plasma Concentrations of Compound of Formula I: listed as Compound of Formula I; for concentration at 0 h: 0 h after administration
Protocol: Compound of Formula I and salts thereof (sulfate, hydrochloride salt, phosphate, maleate), supplied by Shanghai Jingxin Biopharmaceutical Co., Ltd. • Strain: SD rats; Gender: male; Body weight: about 250 grams; Source: shanghai Jiesijie Experimental Animal Co., Ltd Route: single intragastric administration; Capacity: measured in 10 mL/kg body weight Preparation: weighing appropriate amount of the free base or salt of the compound of Formula I, adding a small amount of 0.5% CMC-Na to grind, adding 0.5% CMC-Na to the volume. The concentration is measured as the base. 20 SD rats were divided into 5 groups with 4 rats in each group, fasted for 12 h and drank freely before administration. […] The blood was anticoagulated with 1% heparin, the plasma was separated by 8000 rpm centrifugation for 4 min and stored at -40° C. for testing. LC-MS/MS Method. Pharmacokinetic parameters after administration in rats were calculated using a non-compartmental model of DAS 2.0 software.

CN(C)C(=O)N[C@H]1CC[C@H](CCN2CCN(c3cccc4ccsc34)CC2)CC1 [Example 1, N′-[trans-4-[2-[7-(benzo[b]thiophene)-7-piperazinyl]ethyl]cyclohexyl]-N,N-dimethylurea]
solubility in water (solubility in water): about 0.031 mg/ml
Hygroscopicity [1]: Almost no
Vapor sorption [1]: 0.16%
MRT0-∞ [2]: 3.63 ± 0.306 h
Tmax [2]: 0.583 ± 0.289 h
t1/2 [2]: 2.78 ± 0.463 h
Plasma Concentrations of Compound of Formula I ([3]; 5 min after administration, Mean ± SD): 0.0034 ± 0.00574 µg/mL
Plasma Concentrations of Compound of Formula I ([3]; 5 min after administration, rat 1♂): 0.000419 µg/mL
Plasma Concentrations of Compound of Formula I ([3]; 5 min after administration, rat 2♂): 0.000624 µg/mL
Plasma Concentrations of Compound of Formula I ([3]; 5 min after administration, rat 3♂): 0.012 µg/mL
Plasma Concentrations of Compound of Formula I ([3]; 5 min after administration, rat 4♂): 0.000543 µg/mL
Plasma Concentrations of Compound of Formula I ([3]; 0.167 h after administration, rat 1♂): 0.00635 µg/mL
Plasma Concentrations of Compound of Formula I ([3]; 0.167 h after administration, rat 3♂): 0.0258 µg/mL
Plasma Concentrations of Compound of Formula I ([3]; 0.333 h after administration, rat 1♂): 0.0268 µg/mL
Plasma Concentrations of Compound of Formula I ([3]; 0.333 h after administration, rat 2♂): 0.033 µg/mL
Plasma Concentrations of Compound of Formula I ([3]; 0.333 h after administration, rat 3♂): 0.0518 µg/mL
Plasma Concentrations of Compound of Formula I ([3]; 0.5 h after administration, rat 2♂): 0.0372 µg/mL
Plasma Concentrations of Compound of Formula I ([3]; 0.5 h after administration, rat 3♂): 0.0516 µg/mL
Plasma Concentrations of Compound of Formula I ([3]; 1 h after administration, rat 3♂): 0.0456 µg/mL
Plasma Concentrations of Compound of Formula I ([3]; 2 h after administration, rat 3♂): 0.0239 µg/mL
Plasma Concentrations of Compound of Formula I ([3]; 2 h after administration, rat 4♂): 0.0403 µg/mL
Plasma Concentrations of Compound of Formula I ([3]; 4 h after administration, rat 2♂): 0.0063 µg/mL
Plasma Concentrations of Compound of Formula I ([3]; 4 h after administration, rat 3♂): 0.00795 µg/mL
Plasma Concentrations of Compound of Formula I ([3]; 4 h after administration, rat 4♂): 0.016 µg/mL
Plasma Concentrations of Compound of Formula I ([3]; 6 h after administration, rat 2♂): 0.00194 µg/mL
Plasma Concentrations of Compound of Formula I ([3]; 6 h after administration, rat 4♂): 0.00891 µg/mL
Plasma Concentrations of Compound of Formula I ([3]; 9 h after administration, rat 2♂): 0.00095 µg/mL
Plasma Concentrations of Compound of Formula I ([3]; 9 h after administration, rat 4♂): 0.0033 µg/mL
Plasma Concentrations of Compound of Formula I ([3]; 12 h after administration, rat 1♂): 0.000372 µg/mL
Plasma Concentrations of Compound of Formula I ([3]; 12 h after administration, rat 2♂): 0.000578 µg/mL
Plasma Concentrations of Compound of Formula I ([3]; 12 h after administration, rat 3♂): 0.000682 µg/mL
Plasma Concentrations of Compound of Formula I ([3]; 12 h after administration, rat 4♂): 0.00166 µg/mL
Plasma Concentrations of Compound of Formula I ([3]; 24 h after administration, Mean ± SD): 0.000497 ± 0.000273 µg/mL
Plasma Concentrations of Compound of Formula I ([3]; 24 h after administration, rat 1♂): 0.000487 µg/mL
Plasma Concentrations of Compound of Formula I ([3]; 24 h after administration, rat 2♂): 0.000308 µg/mL
Plasma Concentrations of Compound of Formula I ([3]; 24 h after administration, rat 3♂): 0.000886 µg/mL
Plasma Concentrations of Compound of Formula I ([3]; 24 h after administration, rat 4♂): 0.000306 µg/mL
concentration at 0 h ([3]; male, SD, rat, plasma, oral, 1 mg/kg, Mean ± SD, read-out: Plasma Concentrations of Compound of Formula I): 0 µg/mL
concentration at 0 h ([3]; male, SD, rat, plasma, oral, 1 mg/kg, rat 1♂, read-out: Plasma Concentrations of Compound of Formula I): 0 µg/mL
concentration at 0 h ([3]; male, SD, rat, plasma, oral, 1 mg/kg, rat 2♂, read-out: Plasma Concentrations of Compound of Formula I): 0 µg/mL
concentration at 0 h ([3]; male, SD, rat, plasma, oral, 1 mg/kg, rat 3♂, read-out: Plasma Concentrations of Compound of Formula I): 0 µg/mL
concentration at 0 h ([3]; male, SD, rat, plasma, oral, 1 mg/kg, rat 4♂, read-out: Plasma Concentrations of Compound of Formula I): 0 µg/mL
concentration at 0.167 h ([3]; male, SD, rat, plasma, oral, 1 mg/kg, 0.167 h after administration, Mean ± SD, read-out: Plasma Concentrations of Compound of Formula I): 0.0149 ± 0.0083 µg/mL
concentration at 0.167 h ([3]; male, SD, rat, plasma, oral, 1 mg/kg, 0.167 h after administration, rat 2♂, read-out: Plasma Concentrations of Compound of Formula I): 0.0113 µg/mL
concentration at 0.167 h ([3]; male, SD, rat, plasma, oral, 1 mg/kg, 0.167 h after administration, rat 4♂, read-out: Plasma Concentrations of Compound of Formula I): 0.0163 µg/mL
concentration at 0.333 h ([3]; male, SD, rat, plasma, oral, 1 mg/kg, 0.333 h after administration, Mean ± SD, read-out: Plasma Concentrations of Compound of Formula I): 0.0422 ± 0.0145 µg/mL
concentration at 0.333 h ([3]; male, SD, rat, plasma, oral, 1 mg/kg, 0.333 h after administration, rat 4♂, read-out: Plasma Concentrations of Compound of Formula I): 0.057 µg/mL
concentration at 0.5 h ([3]; male, SD, rat, plasma, oral, 1 mg/kg, 0.5 h after administration, Mean ± SD, read-out: Plasma Concentrations of Compound of Formula I): 0.0464 ± 0.0137 µg/mL
concentration at 0.5 h ([3]; male, SD, rat, plasma, oral, 1 mg/kg, 0.5 h after administration, rat 1♂, read-out: Plasma Concentrations of Compound of Formula I): 0.0336 µg/mL
concentration at 0.5 h ([3]; male, SD, rat, plasma, oral, 1 mg/kg, 0.5 h after administration, rat 4♂, read-out: Plasma Concentrations of Compound of Formula I): 0.0633 µg/mL
concentration at 1 h ([3]; male, SD, rat, plasma, oral, 1 mg/kg, 1 h after administration, Mean ± SD, read-out: Plasma Concentrations of Compound of Formula I): 0.0437 ± 0.0148 µg/mL
concentration at 1 h ([3]; male, SD, rat, plasma, oral, 1 mg/kg, 1 h after administration, rat 1♂, read-out: Plasma Concentrations of Compound of Formula I): 0.0294 µg/mL
concentration at 1 h ([3]; male, SD, rat, plasma, oral, 1 mg/kg, 1 h after administration, rat 2♂, read-out: Plasma Concentrations of Compound of Formula I): 0.0363 µg/mL
concentration at 1 h ([3]; male, SD, rat, plasma, oral, 1 mg/kg, 1 h after administration, rat 4♂, read-out: Plasma Concentrations of Compound of Formula I): 0.0636 µg/mL
concentration at 2 h ([3]; male, SD, rat, plasma, oral, 1 mg/kg, 2 h after administration, Mean ± SD, read-out: Plasma Concentrations of Compound of Formula I): 0.0251 ± 0.0106 µg/mL
concentration at 2 h ([3]; male, SD, rat, plasma, oral, 1 mg/kg, 2 h after administration, rat 1♂, read-out: Plasma Concentrations of Compound of Formula I): 0.0168 µg/mL
concentration at 2 h ([3]; male, SD, rat, plasma, oral, 1 mg/kg, 2 h after administration, rat 2♂, read-out: Plasma Concentrations of Compound of Formula I): 0.0192 µg/mL
concentration at 4 h ([3]; male, SD, rat, plasma, oral, 1 mg/kg, 4 h after administration, Mean ± SD, read-out: Plasma Concentrations of Compound of Formula I): 0.00891 ± 0.00485 µg/mL
concentration at 4 h ([3]; male, SD, rat, plasma, oral, 1 mg/kg, 4 h after administration, rat 1♂, read-out: Plasma Concentrations of Compound of Formula I): 0.00538 µg/mL
concentration at 6 h ([3]; male, SD, rat, plasma, oral, 1 mg/kg, 6 h after administration, Mean ± SD, read-out: Plasma Concentrations of Compound of Formula I): 0.00399 ± 0.00332 µg/mL
concentration at 6 h ([3]; male, SD, rat, plasma, oral, 1 mg/kg, 6 h after administration, rat 1♂, read-out: Plasma Concentrations of Compound of Formula I): 0.00203 µg/mL
concentration at 6 h ([3]; male, SD, rat, plasma, oral, 1 mg/kg, 6 h after administration, rat 3♂, read-out: Plasma Concentrations of Compound of Formula I): 0.00306 µg/mL
concentration at 9 h ([3]; male, SD, rat, plasma, oral, 1 mg/kg, 9 h after administration, Mean ± SD, read-out: Plasma Concentrations of Compound of Formula I): 0.00165 ± 0.00113 µg/mL
concentration at 9 h ([3]; male, SD, rat, plasma, oral, 1 mg/kg, 9 h after administration, rat 1♂, read-out: Plasma Concentrations of Compound of Formula I): 0.000876 µg/mL
concentration at 9 h ([3]; male, SD, rat, plasma, oral, 1 mg/kg, 9 h after administration, rat 3♂, read-out: Plasma Concentrations of Compound of Formula I): 0.00147 µg/mL
concentration at 12 h ([3]; male, SD, rat, plasma, oral, 1 mg/kg, 12 h after administration, Mean ± SD, read-out: Plasma Concentrations of Compound of Formula I): 0.000823 ± 0.000573 µg/mL
